Laboratory results as given in article PMC10857906, “PROTAC-mediated NR4A1 degradation as a novel strategy for cancer immunotherapy” (The Journal of Experimental Medicine, 2024).

Assays:
Type in all cases: cell-based
[1] = molecular target: T1, NR4A1 (Homo sapiens, UniProt P22736); experiment: NR4A1 degradation in CHL-1 human melanoma cells (immunoblotting); details: CHL-1 cells
T1 construct: NR-V04 effectively promoted the degradation of NR4A1 in two human melanoma cell lines within 16 h; endogenous in cells; host or cells: CHL-1, A375, WM164, M229 human melanoma cells
T1 sequence (P22736 whole entry): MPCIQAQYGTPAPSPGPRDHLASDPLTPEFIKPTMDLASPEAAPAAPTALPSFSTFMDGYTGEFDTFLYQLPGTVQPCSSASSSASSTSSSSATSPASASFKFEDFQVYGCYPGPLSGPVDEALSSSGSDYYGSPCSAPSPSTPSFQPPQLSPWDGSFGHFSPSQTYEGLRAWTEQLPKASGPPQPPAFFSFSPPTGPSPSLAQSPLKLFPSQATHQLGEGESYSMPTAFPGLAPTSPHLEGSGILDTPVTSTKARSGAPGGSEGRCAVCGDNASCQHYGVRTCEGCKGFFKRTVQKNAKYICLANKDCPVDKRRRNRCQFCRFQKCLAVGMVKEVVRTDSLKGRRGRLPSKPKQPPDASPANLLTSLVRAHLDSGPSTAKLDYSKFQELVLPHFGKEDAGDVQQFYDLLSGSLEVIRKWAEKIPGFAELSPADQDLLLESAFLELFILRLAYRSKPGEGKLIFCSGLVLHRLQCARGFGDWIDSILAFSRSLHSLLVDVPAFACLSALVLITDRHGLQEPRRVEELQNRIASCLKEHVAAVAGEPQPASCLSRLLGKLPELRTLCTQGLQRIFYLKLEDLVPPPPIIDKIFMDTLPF
Protocol: Human melanoma cell lines: A375 and CHL-1 (gifts from Dr. D. Zhou, the University of Texas Health Science Center, San Antonio, TX, USA) were cultured in Dulbecco’s Modified Eagles’ Medium (DMEM, D5796; Sigma-Aldrich), WM164 and M229 (gifts from Dr. K.S.M. Smalley’s lab) were cultured in RPMI-1640 (R8758; Sigma-Aldrich). Mouse melanoma cell lines: B16F10 (CRL-6475, ATCC) was cultured in DMEM, SW1 and SM1 (gift from Dr. K.S.M. Smalley, Moffitt Cancer Center, Tampa, FL, USA) were cultured in RPMI. Human epithelial kidney cell lines: HEK293T (293T, CRL-3216; ATCC) and Vhl-KO-293T (gift from Dr. D. Zhou, the University of Texas Health Science Center, San Antonio, TX, USA) were cultured in DMEM. Mouse colon cancer cell lines: MC38 (ENH204-FP; Kerafast Inc.) was cultured in DMEM supplemented with 1 mM glutamine, […] non-essential amino acids (11140050; Thermo Fisher Scientific), 1 mM sodium pyruvate (11360070; Thermo Fisher Scientific), and 10 mM HEPES (15630080; Thermo Fisher Scientific). All cell culturing media were supplemented with 10% fetal bovine serum (FBS, F2442; Sigma-Aldrich), 100 U/ml penicillin, and 100 µg/ml streptomycin (P4333; Sigma-Aldrich).
(§1) Samples were lysed using radioimmunoprecipitation assay buffer (RIPA) lysis buffer (150 mM NaCl, 5 mM EDTA, 50 mM Tris pH 8.0, 0.5% sodium deoxycholate, 1% NP-40, 0.1% SDS) supplemented with 1 mM dithiothreitol and protease inhibitors. The lysates were separated by SDS-PAGE and analyzed using standard western blotting procedures ([Khan et al., 2019]). Antibodies: human NR4A1 (ab153914, 1:1,000; Abcam), mouse NR4A1 (14-5965-82, 1:1,000; Invitrogen), NR4A2 (AV38753, 1:1,000; Sigma-Aldrich), NR4A3 (TA804893, 1: 1,000; Thermo Fisher Scientific), VHL (68547, 1:1,000; Cell Signaling), β-actin (13E5, 1:5,000; Cell Signaling), β-tubulin (9F3, 1: 5,000; Cell Signaling), and GAPDH (D16H11, 1: 5,000; Cell Signaling) were employed for protein detection.

[2] = molecular target: T2, NR4A3 (Homo sapiens, UniProt Q92570); experiment: NR4A3 protein level after treatment (immunoblotting)
T2 construct: endogenous in cells
T2 sequence (Q92570 whole entry): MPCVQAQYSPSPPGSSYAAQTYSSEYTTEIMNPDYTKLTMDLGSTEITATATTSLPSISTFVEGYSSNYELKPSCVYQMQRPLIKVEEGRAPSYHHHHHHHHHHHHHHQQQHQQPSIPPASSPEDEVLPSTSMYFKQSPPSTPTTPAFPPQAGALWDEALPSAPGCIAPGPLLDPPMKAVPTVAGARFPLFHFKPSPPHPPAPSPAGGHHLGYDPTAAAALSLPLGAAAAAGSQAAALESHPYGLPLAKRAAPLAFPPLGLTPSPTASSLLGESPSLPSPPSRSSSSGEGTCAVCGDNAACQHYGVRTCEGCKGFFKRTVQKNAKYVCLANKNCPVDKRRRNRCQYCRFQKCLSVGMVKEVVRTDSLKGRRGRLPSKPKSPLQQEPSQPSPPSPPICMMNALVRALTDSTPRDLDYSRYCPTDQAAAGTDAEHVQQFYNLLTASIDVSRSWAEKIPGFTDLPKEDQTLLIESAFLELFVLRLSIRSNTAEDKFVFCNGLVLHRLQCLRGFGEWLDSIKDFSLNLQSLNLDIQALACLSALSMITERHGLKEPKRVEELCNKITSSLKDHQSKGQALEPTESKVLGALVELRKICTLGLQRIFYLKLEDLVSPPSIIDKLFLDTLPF
Protocol: as §1

[3] = molecular target: NR4A1 and VHL (Homo sapiens, UniProt P22736+P40337); experiment: Co-IP of Flag-NR4A1 and VHL in HEK293T cells; details: 500 nM, 16 h, 0.5 μM MG132
Sequence of NR4A1 and VHL (P22736 whole entry): as the sequence (P22736 whole entry) above
Sequence of NR4A1 and VHL (P40337 whole entry): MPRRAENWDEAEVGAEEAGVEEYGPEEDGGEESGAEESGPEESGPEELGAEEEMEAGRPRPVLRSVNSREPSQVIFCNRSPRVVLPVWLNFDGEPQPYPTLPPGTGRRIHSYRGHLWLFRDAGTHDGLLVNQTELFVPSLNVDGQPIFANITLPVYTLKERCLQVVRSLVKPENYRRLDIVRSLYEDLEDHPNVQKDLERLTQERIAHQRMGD
Sequence of NR4A1 and VHL (Q15369 whole entry partner): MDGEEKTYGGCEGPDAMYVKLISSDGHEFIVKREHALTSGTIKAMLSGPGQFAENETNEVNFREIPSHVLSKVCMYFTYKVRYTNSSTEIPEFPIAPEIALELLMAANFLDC
Sequence of NR4A1 and VHL (Q15370 whole entry partner): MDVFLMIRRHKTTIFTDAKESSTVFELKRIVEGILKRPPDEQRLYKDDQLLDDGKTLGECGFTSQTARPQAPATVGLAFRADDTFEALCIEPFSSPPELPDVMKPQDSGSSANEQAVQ
Protocol: HEK293T cells were transfected with 3 µg Flag-NR4A1 (HG17699-CF; SinoBiological) for 36 h in Opti-MEM (31985062; Thermo Fisher Scientific) medium with 10 µl GeneTran III reagent (GT2211; Biomiga).
HEK293T cells were transfected with Flag-NR4A1 for 36 h, following with treatment of either DMSO or 500 nM […] for 16 h, together with 500 nM MG132 included to prevent protein degradation. Proteins were extracted using RIPA lysis buffer without SDS (150 mM NaCl, 5 mM EDTA, 50 mM Tris, pH 8.0, 0.5% sodium deoxycholate, and 1% NP-40) supplemented with 1% protease inhibitor cocktail (C0001; TargetMol). IP was performed using Anti-FLAG M2 Magnetic Beads (M8823; Sigma-Aldrich) as per the manufacturer’s protocol. The immunoprecipitated samples were eluted with 2× SDS sample buffer and boiled for 5 min at 95°C. The samples were then subjected to denaturation, SDS-PAGE, and immunoblotting analysis.

CC1=C(O)C(=O)C=C2C1=CC=C1[C@@]2(C)CC[C@@]2(C)[C@@H]3C[C@](C)(C(=O)NCCOCCOCCOCCOCC(=O)N[C@H](C(=O)N4C[C@H](O)C[C@H]4C(=O)N[C@@H](C)c4ccc(-c5scnc5C)cc4)C(C)(C)C)CC[C@]3(C)CC[C@]12C [NR-V04]
NR4A1 protein level, initial screening ([1]; 250 nM, 16 h, immunoblotting and densitometry): highest potency in reducing the protein level of NR4A1
NR4A1 protein level with proteasome inhibitor MG132 pretreatment ([1]; 0.5 μM MG132 10 min, then 500 nM NR-V04 16 h): effectively rescued the NR4A1 protein level
NR4A1 protein level at early time point ([1]; 500 nM, 4 h): initial induction of NR4A1 protein
NR4A1 degradation with VHL ligand VHL-032 pretreatment ([1]; 10 µM VHL 032 10 min, then 500 nM NR-V04 16 h): prevented
DC50 ([1]; 16 h treatment, read-out: 50% degradation concentration (DC50) of NR4A1): 0.229 µM
NR4A3 protein level (selectivity in the NR4A family) [2]: sparing NR4A2 and NR4A3
Co-IP complex formation [3]: complex formation between NR4A1 and VHL
